# What was measured:
# [1] = tested on: ZO1 expression in T84 cells; test: IFNγ-mediated loss of ZO1 expression in T84 cells (immunofluorescence); assay type: cell-based, human; details: pre-treatment with 1 mM metabolite for 18 hours, IFNγ 48 hours
# [2] = tested on: DSS induced murine colitis; test: Acute model of DSS induced murine colitis, prophylactic model; assay type: in vivo, C57BL/6 female mice
# Source text: The present inventors hypothesised that the big-data approach could be used to identify novel candidate live biotherapeutics for inflammatory bowel disease. We therefore tested the therapeutic efficacy of I. colisanans MH27-1 in an acute model of DSS induced murine colitis (FIG. 4A) as this is a well-documented model of epithelial injury and repair. […] As expected, prednisone exacerbated the DSS induced weight loss (Yamamoto, 2013), however DSS induced weight loss was ameliorated by treatment with I. colisanans MH27-1 or F. prausnitzii A2-165 (FIG. 4B).
# I. colisanans strains were grown to early stationary phase in PYG or YG/V. F. prausnitzii was grown in TY medium. The cell density of the individual cultures was calculated using a Helber Counting Chamber. To prepare the bacterial gavage solutions, individual cultures were centrifuged under a layer of sterile heavy mineral oil at 5,000 g for 10 minutes and the cell-free supernatant was then discarded. The cell pellets were washed in 1.5 ml of sterile anaerobic buffered diluent (38 ml/L each of salt solutions 2 & 3 (McSweeney, 2005), 1 ml/L of 0.1% (w/v) resazurin solution, 1 g/L L-cysteine) and then centrifuged again. […]
# For the prophylactic model, six-week-old C57BL/6 female mice purchased from Animal Resources Centres (Western Australia, Australia) were randomised and then co-housed for 7 days prior to experimentation. […] Body weights and stool consistency were recorded daily. […]
# Animals were examined with a small animal gastrointestinal endoscope (Karl Storz Endoskope, Tuttlingen, Germany) on days −1, 2 and 6 to assess the extent of colon mucosal inflammation (Marks, 2015; and Liu, 2019). […] To grade colitis severity, the extent of inflammation and epithelial injury in the tissue sections were graded semi-quantitatively using an established scoring system (Table 6). The samples were then randomised and subsequently scored in a blinded by a trained gastrointestinal pathologist.
# DSS colitis = test: Acute mouse model of DSS colitis, therapeutic model (I. colisanans MH27-2); assay type: in vivo, female C57BL/6 mice; details: 2.5% DSS, daily treatment Day 4 to Day 10
# Source text: The therapeutic efficacy of I. colisanans MH27-2 in an acute mouse model of DSS colitis was examined, with prednisone acting as a positive control drug.
# For the therapeutic model, groups of 10 or 20 female C57BL/6 mice were used. All animals, except those in the healthy group, were given 2.5% dextran sodium sulfate (DSS) in the drinking water for 6 days total (Day 0 to Day 5). DSS was then withdrawn and replaced with normal drinking water for a further 5 days (Day 6 to Day 10). For the treatments, mice were given once daily oral gavage of 200 μL of I. colisanans MH27-2 at a dose of 2×10^8 viable cells per day, or vehicle consisting of sterile glycerol and phosphate buffered salt solution. The positive control drug prednisone was similarly administered via oral gavage at a dose of 2 mg/kg per day. Treatments started on Day 4 and were given for 7 consecutive days until Day 10. Animals were sacrificed on Day 10 approximately 4 hours after the final treatment. Colon was harvested, rinsed, weighed, photographed, cut longitudinally. Colon tissue was fixed in 4% formalin and kept in 70% ethanol for histopathology using the Swiss-roll method.
# [3] = tested on: IL-23-mediated activation of STAT3; test: IL-23 mediated STAT3 activation, HEK-Blue IL-23 reporter cell line (SEAP); assay type: cell-based, human
# Source text: The present inventors next sought to investigate whether bacterial products naturally produced by the gut bacterium I. colisanans MH27, can modulate IL-23 mediated activation of STAT3. The JAK-STAT immune axis is a recognised and validated drug target for IBD (Salas et al., 2020) and other diseases (McLornan et al., 2021) with JAK-STAT pathway signalling targeted by several approved IBD therapeutics including anti-IL-23 antibodies (e.g., Ustekinumab) and small molecule inhibitors (e.g., tofacitinib) (Hu et al., 2021). As STAT3 suppression can reduce damaging inflammation, I. colisanans MH27 and/or its bioactives could potentially be used as novel immunoregulatory therapies for IBD and other diseases. The present inventors therefore examined whether I. colisanans MH27 can suppress IL-23-mediated activation of STAT3 using the HEK-Blue™ IL-23 reporter cell line. […]
# IL-23-mediated STAT3 activity was assessed using the HEK Blue IL-23 cell line (Invivogen). […] SEAP is secreted into the medium and the extent of SEAP expression can be quantified using QUANTI-Blue solution. […]
# SEAP production was quantified using QUANTI-BIue™ solution and recorded as optical density (OD) at 630 nm using a PHERAstar FS plate reader (BMG Labtech). […]
# [4] = tested on: IL-6 mediated activation of STAT3; test: IL-6 mediated STAT3 activation, HEK-Blue IL-6 reporter cell line (SEAP); assay type: cell-based, human; details: control inhibitor, 10 μM
# Source text: (§1) Increased levels of the pro-inflammatory cytokine IL-6 and signalling via its receptor IL-6R is associated with IBD pathogenesis. […] These effects are mediated by IL-6 receptor binding which causes JAK kinase activation and STAT3 dimerization in combination with activation of MAPK/ERK and other downstream kinases. Here, we examined whether I. colisanans MH27-1 and MH27-2 can suppress IL-6 classical and trans signalling mediated activation of STAT3 using the HEK-Blue™ IL-6 reporter cell line. The HEK-Blue™ IL-6 reporter cell line constitutively expresses the human IL-6 receptor and binding of IL-6 to the receptor triggers expression of a STAT3-responsive SEAP reporter. […] Additionally, I. colisanans MH27-2 suppressed IL-6 trans signalling mediated activation of STAT3 (FIG. 6G).
# (§2) To assess IL-6 and IL-6/IL-6R-mediated STAT3 suppressive activity, three independent colonies were inoculated and grown until early stationary phase. […]
# (§3) IL-6- and IL-6/IL-6R mediated STAT3 activity was assessed using the HEK Blue IL-6 cell line (Invivogen). […] After 24 hours, the STAT3 regulated SEAP reporter activity was assessed using Quanti Blue solution as recommended by the manufacturer (Invivogen). […] Cytotoxicity was assessed using the CellTiter-Glo® 2.0 Cell Viability Assay (Promega, Australia) as recommended by the manufacturer.
# [5] = tested on: IL-6 trans signalling mediated activation of STAT3; test: IL-6/IL-6R trans signalling mediated STAT3 activation, HEK-Blue IL-6 reporter cell line; assay type: cell-based, human; details: control inhibitor, 10 μM
# Source text: as §1, §2, §3
# [6] = tested on: mild to moderate flares of ulcerative colitis; details: first line therapy; cited from earlier work
# [7] = DSS treated mice, colon histology
structure (smiles),measurement,setting,value
"O=C(O)C=Cc1c[nH]c2ccccc12 [IAyA, indole-3-acrylic acid]",IFNγ-induced reduction in ZO1 expression,[1],significantly ameliorated
"O=C(O)CCc1c[nH]c2ccccc12 [IPA, indole-3-proprionic acid]",IFNγ-induced reduction in ZO1 expression,[1],significantly ameliorated
C[C@]12C=CC(=O)C=C1CC[C@@H]1[C@@H]2C(=O)C[C@@]2(C)[C@H]1CC[C@]2(O)C(=O)CO [prednisone],DSS induced weight loss (body weight),"[2]; 3.5% DSS, daily treatment, compared to DSS+vehicle",exacerbated
same,disease pathology (histopathological score),[2]; [7],significant improvement in disease pathology
same,epithelial injury,[2]; [7],ameliorated
same,histological evidence of colitis,DSS colitis,ameliorated
O=C1NC(Cc2ccccc2)C(=O)N2CCCC12 (centres unmarked) [cyclo(-Phe-Pro)],IL-23 mediated activation of STAT3,"[3]; pure metabolite, relative to the vehicle control",suppressed
C[C@@H]1CCN(C(=O)CC#N)C[C@@H]1N(C)c1ncnc2[nH]ccc12 [tofacitinib],IL-6 mediated activation of STAT3,[4],fully prevented
same,IL-6/IL-6R mediated activation of STAT3,[5],fully prevented
same,IL-23 mediated activation of STAT3,"[3]; control inhibitor, 5 μM",fully prevented
Nc1ccc(O)c(C(=O)O)c1 [Mesalmine],response rates,[6],40%-70%

# From patent publication US20260027161A1, “BACTERIAL STRAINS FOR TREATING DISEASE” (MICROBA IP PTY LTD, priority 2021, published 2026)
